Measured values: ChEMBL document CHEMBL1201862, “PubChem BioAssay data set” (2004)
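Protocol summary: plate cells (96-well), add compound at 5 concentrations, incubate 48 h, interpolate endpoints linearly. GI50 = concentration required for 50% inhibition of growth.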 Calls of active or inactive are those of the source. No stated cut-off is given here; in the data, active = GI50 up to about 1.1 µM and inactive = higher.

Key:
Assay in all cases: growth of human tumour cells (NCI), 48 h
[1] = test system: 786-0
[2] = test system: A498
[3] = test system: A549
[4] = test system: ACHN
[5] = test system: BT-549
[6] = test system: CAKI-1
[7] = test system: CCRF-CEM
[8] = test system: COLO 205
[9] = test system: DMS-114
[10] = test system: DMS-273
[11] = test system: DU-145
[12] = test system: EKVX
[13] = test system: HCC 2998
[14] = test system: HCT-116
[15] = test system: HCT-15
[16] = test system: HL-60
[17] = test system: HOP-62
[18] = test system: HT-29
[19] = test system: Hs-578T
[20] = test system: IGROV-1
[21] = test system: K562
[22] = test system: KM-20L2
[23] = test system: KM12
[24] = test system: LOX IMVI
[25] = test system: M14
[26] = test system: M19-MEL
[27] = test system: MCF7
[28] = test system: MDA-MB-231
[29] = test system: MDA-MB-435
[30] = test system: MDA-N
[31] = test system: MOLT-4
[32] = test system: NCI-H226
[33] = test system: NCI-H23
[34] = test system: NCI-H460
[35] = test system: NCI-H522
[36] = test system: NCI/ADR-RES
[37] = test system: OVCAR-3
[38] = test system: OVCAR-4
[39] = test system: OVCAR-5
[40] = test system: OVCAR-8
[41] = test system: PC-3
[42] = test system: RPMI-8226
[43] = test system: RXF 393
[44] = test system: SF-268
[45] = test system: SF-295
[46] = test system: SF-539
[47] = test system: SK-MEL-28
[48] = test system: SK-MEL-2
[49] = test system: SK-OV-3
[50] = test system: SN12C
[51] = test system: SNB-19
[52] = test system: SNB-75
[53] = test system: SR
[54] = test system: SW-620
[55] = test system: T47D
[56] = test system: TK-10
[57] = test system: U-251
[58] = test system: UACC-257
[59] = test system: UACC-62
[60] = test system: UO-31
[61] = test system: DLD-1
[62] = test system: HOP-92
[63] = test system: LXFL 529
[64] = test system: Malme-3M
[65] = test system: SNB-78
[66] = test system: SK-MEL-5

CC(=O)O[C@@]12CO[C@@H]1C[C@@H](O)[C@@]1(C)C(=O)[C@H](O)C3=C(C)[C@@H](OC(=O)[C@H](O)[C@@H](NC(=O)c4ccccc4)c4ccccc4)C[C@@](O)([C@@H](OC(=O)c4ccccc4)C12)C3(C)C (stereo partly drawn)
GI50 [1]: 62.8 nM (active) | GI50 [2]: 213 nM (active) | GI50 [3]: 83 nM (active) | GI50 [4]: 2770 nM (inactive) | GI50 [5]: 24.3 nM (active) | GI50 [6]: 1820 nM (inactive) | GI50 [7]: 10.3 nM (active) | GI50 [8]: < 10 nM (active) | GI50 [9]: < 10 nM (active) | GI50 [10]: < 10 nM (active) | GI50 [11]: 30.1 nM (active) | GI50 [12]: 4810 nM (inactive) | GI50 [13]: 21.2 nM (active) | GI50 [14]: < 10 nM (active) | GI50 [15]: 3030 nM | GI50 [16]: < 10 nM (active) | GI50 [17]: 89.3 nM (active) | GI50 [18]: < 10 nM (active) | GI50 [19]: < 10 nM (active) | GI50 [20]: 21.8 nM (active) | GI50 [21]: 15.6 nM (active) | GI50 [22]: 13.4 nM (active) | GI50 [23]: < 10 nM (active) | GI50 [24]: < 30.3 nM (active) | GI50 [25]: 36.3 nM (active) | GI50 [26]: < 10 nM (active) | GI50 [27]: < 10 nM (active) | GI50 [28]: 40.8 nM (active) | GI50 [29]: < 10 nM (active) | GI50 [30]: < 10 nM (active) | GI50 [31]: < 10 nM (active) | GI50 [32]: 17400 nM (inactive) | GI50 [33]: 37.9 nM (active) | GI50 [34]: 21.7 nM (active) | GI50 [35]: < 12.2 nM (active) | GI50 [36]: 20800 nM (inactive) | GI50 [37]: < 16.2 nM (active) | GI50 [38]: 24700 nM (inactive) | GI50 [39]: 83.2 nM (active) | GI50 [40]: 80.3 nM (active) | GI50 [41]: 16 nM (active) | GI50 [42]: < 10 nM (active) | GI50 [43]: 222 nM (active) | GI50 [44]: 59.4 nM (active) | GI50 [45]: 268 nM (active) | GI50 [46]: < 11.4 nM (active) | GI50 [47]: 748 nM (active) | GI50 [48]: < 10 nM (active) | GI50 [49]: 26 nM (active) | GI50 [50]: 18.4 nM (active) | GI50 [51]: 185 nM (active) | GI50 [52]: < 10 nM (active) | GI50 [53]: 43.8 nM (active) | GI50 [54]: < 10 nM (active) | GI50 [55]: 27.2 nM (active) | GI50 [56]: 705 nM (active) | GI50 [57]: 141 nM (active) | GI50 [58]: 21.7 nM (active) | GI50 [59]: < 10 nM (active) | GI50 [60]: 4510 nM (inactive)

Cc1c2cc(Cl)ccc2n2c(=O)c3ccccc3[nH]c(=O)c12
GI50 [1]: 41500 nM (inactive) | GI50 [6]: > 100000 nM (inactive) | GI50 [7]: 36100 nM (inactive) | GI50 [8]: > 100000 nM (inactive) | GI50 [61]: > 100000 nM (inactive) | GI50 [9]: > 100000 nM (inactive) | GI50 [10]: > 100000 nM (inactive) | GI50 [13]: > 100000 nM (inactive) | GI50 [14]: 69200 nM (inactive) | GI50 [16]: > 10000 nM (inactive) | GI50 [17]: 31200 nM (inactive) | GI50 [62]: > 100000 nM (inactive) | GI50 [20]: > 100000 nM (inactive) | GI50 [21]: 50100 nM (inactive) | GI50 [63]: > 100000 nM (inactive) | GI50 [25]: > 100000 nM (inactive) | GI50 [26]: > 100000 nM (inactive) | GI50 [31]: 42900 nM (inactive) | GI50 [64]: > 100000 nM (inactive) | GI50 [32]: > 100000 nM (inactive) | GI50 [33]: > 100000 nM (inactive) | GI50 [35]: > 100000 nM (inactive) | GI50 [38]: 49800 nM (inactive) | GI50 [42]: > 100000 nM (inactive) | GI50 [44]: > 100000 nM (inactive) | GI50 [46]: 78200 nM (inactive) | GI50 [47]: > 100000 nM (inactive) | GI50 [48]: > 100000 nM (inactive) | GI50 [49]: > 100000 nM (inactive) | GI50 [52]: 59600 nM (inactive) | GI50 [65]: > 100000 nM (inactive) | GI50 [53]: 45300 nM (inactive) | GI50 [59]: > 100000 nM (inactive) | GI50 [60]: > 100000 nM (inactive)

COc1ccc2c(c1)/C(=C\c1c(Cl)[nH]c3cc(C)c(OC)cc13)C(=O)N2
GI50 [1]: 1190 nM (inactive) | GI50 [2]: 830 nM (active) | GI50 [3]: 1190 nM (inactive) | GI50 [4]: 1050 nM (active) | GI50 [5]: 679 nM (active) | GI50 [6]: 1460 nM (inactive) | GI50 [7]: 726 nM (active) | GI50 [8]: 1030 nM (active) | GI50 [11]: 1660 nM (inactive) | GI50 [12]: 2100 nM (inactive) | GI50 [13]: 1640 nM (inactive) | GI50 [14]: 979 nM (active) | GI50 [15]: 467 nM | GI50 [16]: 435 nM (active) | GI50 [17]: 4440 nM (inactive) | GI50 [62]: 2140 nM (inactive) | GI50 [18]: 889 nM (active) | GI50 [19]: 667 nM (active) | GI50 [20]: 467 nM (active) | GI50 [21]: 522 nM (active) | GI50 [23]: 467 nM (active) | GI50 [24]: 753 nM (active) | GI50 [25]: 698 nM (active) | GI50 [27]: 410 nM (active) | GI50 [28]: 2930 nM (inactive) | GI50 [29]: 198 nM (active) | GI50 [30]: 230 nM (active) | GI50 [31]: 893 nM (active) | GI50 [64]: 1280 nM (inactive) | GI50 [32]: 6040 nM (inactive) | GI50 [33]: 593 nM (active) | GI50 [34]: 760 nM (active) | GI50 [35]: 1190 nM (inactive) | GI50 [36]: 811 nM (active) | GI50 [37]: 347 nM (active) | GI50 [38]: 1450 nM (inactive) | GI50 [39]: 2550 nM (inactive) | GI50 [40]: 1960 nM (inactive) | GI50 [41]: 807 nM (active) | GI50 [42]: 942 nM (active) | GI50 [43]: 891 nM (active) | GI50 [44]: 986 nM (active) | GI50 [45]: 396 nM (active) | GI50 [46]: 266 nM (active) | GI50 [47]: 10600 nM (inactive) | GI50 [48]: 713 nM (active) | GI50 [66]: 690 nM (active) | GI50 [49]: 423 nM (active) | GI50 [50]: 2090 nM (inactive) | GI50 [51]: 1390 nM (inactive) | GI50 [52]: 984 nM (active) | GI50 [53]: 357 nM (active) | GI50 [54]: 1220 nM (inactive) | GI50 [55]: 12900 nM (inactive) | GI50 [56]: 1640 nM (inactive) | GI50 [57]: 653 nM (active) | GI50 [58]: 2630 nM (inactive) | GI50 [59]: 434 nM (active) | GI50 [60]: 3130 nM (inactive)
